Target: T1, maize endosperm AGPase, large subunit variant RGR (Q96R, D161G, A443R; numbering of SEQ ID NO: 20) (Zea mays, UniProt P55241+Q84PF5, A443R/D161G/Q96R)
T1 sequence (P55241 46-516 A443R/D161G/Q96R): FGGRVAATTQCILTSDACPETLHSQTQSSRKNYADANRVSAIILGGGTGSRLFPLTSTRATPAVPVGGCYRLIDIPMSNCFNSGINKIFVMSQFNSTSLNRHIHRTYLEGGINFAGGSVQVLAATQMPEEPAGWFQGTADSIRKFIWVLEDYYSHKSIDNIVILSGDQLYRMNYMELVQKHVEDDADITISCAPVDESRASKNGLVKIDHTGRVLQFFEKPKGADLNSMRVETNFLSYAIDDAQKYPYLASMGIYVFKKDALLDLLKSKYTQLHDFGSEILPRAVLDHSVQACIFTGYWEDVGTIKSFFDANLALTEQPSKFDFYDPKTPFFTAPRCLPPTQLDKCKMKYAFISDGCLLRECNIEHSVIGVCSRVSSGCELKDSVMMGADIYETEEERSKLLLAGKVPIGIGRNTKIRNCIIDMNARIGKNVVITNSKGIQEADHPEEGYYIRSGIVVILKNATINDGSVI
T1 sequence (Q84PF5 1-474): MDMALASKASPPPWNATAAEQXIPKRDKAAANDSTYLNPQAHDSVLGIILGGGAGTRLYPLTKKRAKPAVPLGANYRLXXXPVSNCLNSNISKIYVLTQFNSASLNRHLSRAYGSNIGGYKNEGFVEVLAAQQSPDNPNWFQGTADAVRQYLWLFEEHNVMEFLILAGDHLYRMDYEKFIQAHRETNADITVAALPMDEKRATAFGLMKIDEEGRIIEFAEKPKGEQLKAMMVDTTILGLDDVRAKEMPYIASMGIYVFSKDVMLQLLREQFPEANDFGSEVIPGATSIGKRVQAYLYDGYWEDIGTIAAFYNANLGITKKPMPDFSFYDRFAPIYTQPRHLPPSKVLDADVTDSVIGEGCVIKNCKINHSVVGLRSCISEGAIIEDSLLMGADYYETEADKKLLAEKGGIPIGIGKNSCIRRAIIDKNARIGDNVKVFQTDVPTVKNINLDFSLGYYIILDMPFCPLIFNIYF
Assay: Apparent kinetic constants with 3-PGA, 37° C., RGR
Assay type: biochemical
Settings: read-out: ATP Km
Source text: The small and large subunit plasmids of maize endosperm AGPase (pMONcBt2 and pMONcSh2, respectively) (Giroux et al., 1996) were expressed in E. coli AC70R1-504 cells (Iglesias et al., 1993) as previously described (Boehlein et al., 2008).
An endpoint assay was used to determine the rate of the AGPase reaction by coupling the formation of PPi to a decrease in NADH concentration (Boehlein et al., 2008). […] The Michaelis constants (Km) were obtained by varying one substrate in the presence of saturating concentrations of the second substrate. The activation constants were obtained by varying the activator at fixed levels of both substrates. All reactions were performed at 37° C. and mixes were prewarmed before starting the reaction with enzyme. […] The absorbance at 340 nm was monitored after 30 min and the amount of PPi produced was determined from a standard curve using PPi in complete reaction mixtures lacking AGPase. Blank samples contained complete reaction mixtures without enzyme and the change in absorbance between the blank and the reaction was used to calculate the amount of PPi produced. […]
The apparent Michaelis constant and maximum velocity of each reaction was calculated from a V vs. S plots using nonlinear regression analysis and the following equation, v=VmaxS/(Km+S), where v is the measured velocity, Vmax is the maximum velocity, S is the substrate concentration. […]

Nc1ncnc2c1ncn2[C@@H]1O[C@H](COP(=O)(O)OP(=O)(O)OP(=O)(O)O)[C@@H](O)[C@H]1O [ATP]
Km: 62 µM

— patent publication US9650616B2, “Methods for increasing grain yield” (University of Florida Research Foundation, Inc., priority 2014, dated 2017)
